Experimental data published in ChEMBL document CHEMBL1201862, “PubChem BioAssay data set” (2004).
Where “and” joins values, the source holds several entries; their conditions need not be identical. Equal entries are not always repeated. Calls of active or inactive are those of the source.

Assays:
Caspase-3 [1] = molecular target: T1, Caspase-3 (Homo sapiens, UniProt P42574); test: caspase-3 inhibitors as off-family protease, SAR follow-up, selectivity assay for SENP protease inhibitor project, biochemical, luminescence, set 2 (AID 588599); type: functional
T1 sequence (P42574 whole entry): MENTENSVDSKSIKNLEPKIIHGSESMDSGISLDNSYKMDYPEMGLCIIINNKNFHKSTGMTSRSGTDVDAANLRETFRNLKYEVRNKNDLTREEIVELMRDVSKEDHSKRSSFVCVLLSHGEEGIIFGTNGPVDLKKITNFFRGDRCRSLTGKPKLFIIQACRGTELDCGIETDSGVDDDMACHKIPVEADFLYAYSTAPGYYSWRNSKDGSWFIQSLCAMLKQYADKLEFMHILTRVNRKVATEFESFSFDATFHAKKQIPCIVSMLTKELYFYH

[2] = molecular target: T2, Sentrin-specific protease 6 (Homo sapiens, UniProt Q9GZR1); test: SENP6 protease inhibitors, SAR follow-up, biochemical, luminescence, set 2 (AID 588598); type: functional
T2 sequence (Q9GZR1 whole entry): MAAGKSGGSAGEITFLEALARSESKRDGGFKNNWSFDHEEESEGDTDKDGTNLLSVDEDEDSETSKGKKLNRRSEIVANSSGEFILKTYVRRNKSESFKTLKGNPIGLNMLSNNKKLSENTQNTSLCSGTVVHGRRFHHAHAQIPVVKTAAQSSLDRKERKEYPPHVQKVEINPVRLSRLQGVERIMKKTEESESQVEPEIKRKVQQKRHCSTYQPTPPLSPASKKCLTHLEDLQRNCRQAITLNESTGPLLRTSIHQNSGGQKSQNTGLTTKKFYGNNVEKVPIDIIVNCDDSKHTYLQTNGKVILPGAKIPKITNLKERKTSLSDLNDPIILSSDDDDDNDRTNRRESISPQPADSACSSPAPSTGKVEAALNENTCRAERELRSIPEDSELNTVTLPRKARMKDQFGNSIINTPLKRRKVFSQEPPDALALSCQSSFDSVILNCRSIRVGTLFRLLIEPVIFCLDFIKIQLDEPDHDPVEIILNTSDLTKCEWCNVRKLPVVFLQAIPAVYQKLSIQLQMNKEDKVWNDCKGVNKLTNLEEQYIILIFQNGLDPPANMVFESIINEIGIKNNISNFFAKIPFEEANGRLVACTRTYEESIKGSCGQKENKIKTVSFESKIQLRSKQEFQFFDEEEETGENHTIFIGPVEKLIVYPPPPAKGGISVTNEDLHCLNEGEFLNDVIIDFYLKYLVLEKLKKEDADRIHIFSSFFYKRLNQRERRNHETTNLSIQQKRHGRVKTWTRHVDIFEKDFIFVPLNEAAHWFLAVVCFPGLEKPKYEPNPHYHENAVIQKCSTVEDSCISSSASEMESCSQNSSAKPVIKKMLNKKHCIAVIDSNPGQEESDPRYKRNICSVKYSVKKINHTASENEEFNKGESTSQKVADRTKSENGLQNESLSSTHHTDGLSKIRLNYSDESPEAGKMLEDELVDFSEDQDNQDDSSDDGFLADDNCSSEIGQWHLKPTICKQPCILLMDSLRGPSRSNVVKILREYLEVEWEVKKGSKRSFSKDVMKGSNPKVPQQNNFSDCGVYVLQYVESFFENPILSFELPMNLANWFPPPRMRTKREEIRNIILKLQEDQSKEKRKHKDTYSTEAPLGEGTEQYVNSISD

[3] = molecular target: T3, Sentrin-specific protease 7 (Homo sapiens, UniProt Q9BQF6); test: SENP7 protease inhibitors, SAR follow-up, biochemical, luminescence, set 2 (AID 588600); type: functional
T3 sequence (Q9BQF6 whole entry): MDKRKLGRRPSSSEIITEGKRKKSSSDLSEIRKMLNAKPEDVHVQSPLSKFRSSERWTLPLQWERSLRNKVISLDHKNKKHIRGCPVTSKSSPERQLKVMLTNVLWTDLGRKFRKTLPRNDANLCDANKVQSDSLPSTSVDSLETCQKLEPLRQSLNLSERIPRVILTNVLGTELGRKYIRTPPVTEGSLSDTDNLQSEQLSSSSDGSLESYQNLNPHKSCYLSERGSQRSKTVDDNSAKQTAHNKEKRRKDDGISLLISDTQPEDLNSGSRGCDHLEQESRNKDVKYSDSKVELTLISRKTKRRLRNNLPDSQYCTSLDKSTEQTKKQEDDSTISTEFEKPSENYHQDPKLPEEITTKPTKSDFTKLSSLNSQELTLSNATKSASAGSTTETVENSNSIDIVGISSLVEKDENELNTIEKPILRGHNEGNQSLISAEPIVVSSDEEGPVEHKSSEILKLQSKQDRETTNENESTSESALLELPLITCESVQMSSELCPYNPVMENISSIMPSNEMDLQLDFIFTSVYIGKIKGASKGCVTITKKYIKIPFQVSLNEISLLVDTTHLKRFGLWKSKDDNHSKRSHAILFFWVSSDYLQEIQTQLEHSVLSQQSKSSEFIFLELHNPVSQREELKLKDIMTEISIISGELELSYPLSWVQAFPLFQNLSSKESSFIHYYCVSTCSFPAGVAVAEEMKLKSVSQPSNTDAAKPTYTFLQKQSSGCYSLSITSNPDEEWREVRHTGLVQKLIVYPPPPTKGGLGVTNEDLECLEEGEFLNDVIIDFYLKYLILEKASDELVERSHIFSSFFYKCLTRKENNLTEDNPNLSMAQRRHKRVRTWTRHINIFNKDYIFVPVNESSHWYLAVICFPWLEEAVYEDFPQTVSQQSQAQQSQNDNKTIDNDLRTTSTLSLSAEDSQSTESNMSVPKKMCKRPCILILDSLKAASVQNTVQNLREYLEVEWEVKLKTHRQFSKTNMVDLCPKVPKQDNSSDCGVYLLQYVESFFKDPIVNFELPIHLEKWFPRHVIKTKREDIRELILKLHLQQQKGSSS

[4] = molecular target: T4, Sentrin-specific protease 8 (Homo sapiens, UniProt Q96LD8); test: SENP8 protease inhibitors, SAR follow-up, biochemical, luminescence, set 2 (AID 588601); type: functional
T4 sequence (Q96LD8 whole entry): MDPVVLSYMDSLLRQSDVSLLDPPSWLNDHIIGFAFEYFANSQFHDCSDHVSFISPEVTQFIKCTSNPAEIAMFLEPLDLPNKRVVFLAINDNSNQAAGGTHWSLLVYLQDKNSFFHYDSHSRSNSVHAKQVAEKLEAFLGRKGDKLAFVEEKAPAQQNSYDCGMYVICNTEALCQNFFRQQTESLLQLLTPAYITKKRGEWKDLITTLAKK

[5] = molecular target: Sphingosine 1-phosphate receptor 2 (Homo sapiens, UniProt O95136); test: Late-stage fluorescence-based dose-response cell-based counterscreen assay to identify agonists of the Sphingosine 1-Phosphate Receptor 3 (S1P3): Sphingosine 1-Phosphate Receptor 2 (S1P2) agonist assay.; type: functional
[6] = molecular target: T5, Sphingosine 1-phosphate receptor 4 (Homo sapiens, UniProt O95977); test: Late-stage fluorescence-based dose-response cell-based counterscreen assay to identify agonists of the Sphingosine 1-Phosphate Receptor 3 (S1P3): Sphingosine 1-Phosphate Receptor 4 (S1P4) agonist assay.; type: functional
T5 sequence (O95977 whole entry): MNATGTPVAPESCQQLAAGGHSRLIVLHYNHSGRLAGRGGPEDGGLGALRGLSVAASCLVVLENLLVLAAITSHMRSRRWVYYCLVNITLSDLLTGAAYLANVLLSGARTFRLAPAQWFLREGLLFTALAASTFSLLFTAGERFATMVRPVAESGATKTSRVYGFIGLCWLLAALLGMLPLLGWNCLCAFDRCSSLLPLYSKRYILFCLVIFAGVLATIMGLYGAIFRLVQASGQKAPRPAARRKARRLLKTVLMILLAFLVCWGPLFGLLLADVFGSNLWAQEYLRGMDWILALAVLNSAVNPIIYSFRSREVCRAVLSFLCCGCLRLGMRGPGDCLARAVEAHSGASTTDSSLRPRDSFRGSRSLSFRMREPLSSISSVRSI

[7] = molecular target: Potassium voltage-gated channel subfamily KQT member 2 (Rattus norvegicus, UniProt O88943); test: Mode of action assay-Dose response assay for compounds that activate KCNQ2 potassium channels on automated patch clamp. [Related pubchem assays (depositor defined):AID2239, AID2258, AID2287, AID493113]; type: functional
[8] = KCNQ1/KCNE1 channel current potentiation, dose response, selectivity assay for KCNQ2 activator project, automated patch clamp, CHO cells (AID 493042); type: functional
[9] = molecular target: Potassium voltage-gated channel subfamily KQT member 2/member 3 (Rattus norvegicus, UniProt O88943+O88944); test: Mode of action assay-Dose response assay for KCNQ2 activators in the KCNQ2/KCNQ3 co-expressing cells on automated patch clamp. [Related pubchem assays (depositor defined):AID2239, AID2258, AID2287]; type: functional
Beta-lactamase [10] = molecular target: Beta-lactamase (Pseudomonas aeruginosa, UniProt Q79MP6);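 also: biochemical dose-response test of metallo-beta-lactamase enzyme inhibition, read out by epi-absorbance; purified recombinant IMP-1 metallo-beta-lactamase with nitrocefin as substrate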
Beta Lactamase [11] = molecular target: T6, Beta Lactamase (Pseudomonas aeruginosa, UniProt Q932Y6);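 also: confirmatory high-throughput screen measuring VIM-2 metallo-beta-lactamase inhibition by epi-absorbance in dose response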
Beta-lactamase [12] = molecular target: Beta-lactamase (Salmonella choleraesuis (strain SC-B67), UniProt Q5J463)
Beta Lactamase [13] = molecular target: T6, Beta Lactamase; test: beta-lactamase reporter inhibitor potency, dose response, artefact control for TLR9-MyD88 binding inhibitor project, BLA reporter cells, FRET fluorescence (AID 588341); type: cell-based;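 also: cell based assay in CHO-K1 cells stably expressing beta-lactamase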
CHO = test: cytotoxicity in TLR9-MyD88 CHO cells, dose response, cytotoxicity control for TLR9-MyD88 binding inhibitor project, cell-based, luminescence (AID 588339); type: functional, hamster; conditions: Cricetulus griseus;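 also: CHO cells stably coexpressing TLR9 and MyD88 fusions from primary screen; compound exposure lasted 48 hours before viability readout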
[14] = molecular target: Latent membrane protein 1 (Human herpesvirus 4 (strain B95-8), UniProt P03230); test: TES1-eGFP NF-kB reporter inhibition versus Tet-On dsRED, dose response, selectivity assay for LMP1 NF-kB inhibitor project, imaging, HEK293T, dual-color eGFP/dsRED, cherry-picks (AID 588398); type: functional, cell-based
[15] = molecular target: T7, Oxysterols receptor LXR-beta (Homo sapiens, UniProt P55055); type: functional, cell-based;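 also: agonist activity at LXR measured by a cell-based luminescence readout across a dose range, run as a counterscreen for daf-12 agonists; HEK293 cells with Gal4-LXR fusion and GAL4-driven luciferase reporter; potency for activation of Gal4-LXR reporter so compounds are agonists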
T7 sequence (P55055 whole entry): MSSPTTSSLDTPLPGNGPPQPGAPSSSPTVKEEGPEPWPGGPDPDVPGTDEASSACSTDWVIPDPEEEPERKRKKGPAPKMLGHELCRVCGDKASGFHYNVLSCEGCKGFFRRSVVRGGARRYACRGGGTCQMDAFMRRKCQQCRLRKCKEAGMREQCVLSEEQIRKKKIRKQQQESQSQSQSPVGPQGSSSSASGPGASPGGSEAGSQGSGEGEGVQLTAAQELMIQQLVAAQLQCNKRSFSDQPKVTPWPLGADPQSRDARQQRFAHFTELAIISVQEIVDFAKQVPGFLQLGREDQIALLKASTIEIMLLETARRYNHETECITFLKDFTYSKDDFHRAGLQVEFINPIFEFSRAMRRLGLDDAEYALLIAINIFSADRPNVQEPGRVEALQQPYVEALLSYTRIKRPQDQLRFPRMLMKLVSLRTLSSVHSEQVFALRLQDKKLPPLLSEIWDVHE

HEK293 = test: inhibitors of LMP1-driven NF-kB reporter, dose response, cell-based, HEK293, luciferase, cherry-pick (AID 588343); type: functional; conditions: Homo sapiens
[16] = Vero cell cytotoxicity, cytotoxicity control for M. tuberculosis inhibitor project, purified and synthesized samples, set 8 (AID 602431); type: functional; conditions: Mycobacterium tuberculosis
[17] = THP-1 cell cytotoxicity, cytotoxicity control, set 6 (AID 602433); type: functional; conditions: Mycobacterium tuberculosis
[18] = molecular target: T3, Sentrin-specific protease 7; test: SENP7 protease inhibitors, SAR follow-up, biochemical, luminescence (AID 504497); type: functional
[19] = molecular target: T2, Sentrin-specific protease 6; test: SAR Analysis of small molecule inhibitors of Sentrin-specific protease 6 (SENP6) using a Luminescent assay. [Related pubchem assays (depositor defined):AID2582, AID2599]; type: functional
[20] = molecular target: T4, Sentrin-specific protease 8; test: SENP8 protease inhibitors, SAR follow-up, biochemical, luminescence (AID 504501); type: functional
Caspase-3 [21] = molecular target: T1, Caspase-3; test: SAR Analysis of small molecule inhibitors of Sentrin-specific proteases (SENPs) using a Caspase-3 Selectivity assay. [Related pubchem assays (depositor defined):AID2540, AID2599, AID434973, AID489001]; type: functional
Prothrombin = Prothrombin (Bos taurus, UniProt P00735); test: thrombin inhibition, dose response, biochemical, fluorescence polarization, uHTS hits (AID 602369); type: functional
[22] = molecular target: 72 kDa type IV collagenase (Homo sapiens, UniProt P08253); test: Dose Response validation of uHTS RPN11 inhibitor hits using a MMP-2 Fluorescence assay.; type: functional
[23] = molecular target: 26S proteasome non-ATPase regulatory subunit 14 (Homo sapiens, UniProt O00487); test: inhibition of proteasome subunit RPN11 – biochemical, fluorescence polarization, uHTS hits, confirmation (AID 602368); type: functional
26S proteasome non-ATPase regulatory subunit 14, sequence (O00487 whole entry): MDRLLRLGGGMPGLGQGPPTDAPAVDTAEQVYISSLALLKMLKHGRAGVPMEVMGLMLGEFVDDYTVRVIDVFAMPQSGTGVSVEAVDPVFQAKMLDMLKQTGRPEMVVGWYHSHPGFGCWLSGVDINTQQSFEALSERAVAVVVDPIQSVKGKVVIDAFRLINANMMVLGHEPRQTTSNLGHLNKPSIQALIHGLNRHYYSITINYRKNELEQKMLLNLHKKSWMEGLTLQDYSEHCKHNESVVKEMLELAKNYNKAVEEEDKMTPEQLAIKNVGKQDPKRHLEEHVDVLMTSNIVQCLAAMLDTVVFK

Potassium voltage-gated channel subfamily KQT member 2, sequence (O88943 whole entry): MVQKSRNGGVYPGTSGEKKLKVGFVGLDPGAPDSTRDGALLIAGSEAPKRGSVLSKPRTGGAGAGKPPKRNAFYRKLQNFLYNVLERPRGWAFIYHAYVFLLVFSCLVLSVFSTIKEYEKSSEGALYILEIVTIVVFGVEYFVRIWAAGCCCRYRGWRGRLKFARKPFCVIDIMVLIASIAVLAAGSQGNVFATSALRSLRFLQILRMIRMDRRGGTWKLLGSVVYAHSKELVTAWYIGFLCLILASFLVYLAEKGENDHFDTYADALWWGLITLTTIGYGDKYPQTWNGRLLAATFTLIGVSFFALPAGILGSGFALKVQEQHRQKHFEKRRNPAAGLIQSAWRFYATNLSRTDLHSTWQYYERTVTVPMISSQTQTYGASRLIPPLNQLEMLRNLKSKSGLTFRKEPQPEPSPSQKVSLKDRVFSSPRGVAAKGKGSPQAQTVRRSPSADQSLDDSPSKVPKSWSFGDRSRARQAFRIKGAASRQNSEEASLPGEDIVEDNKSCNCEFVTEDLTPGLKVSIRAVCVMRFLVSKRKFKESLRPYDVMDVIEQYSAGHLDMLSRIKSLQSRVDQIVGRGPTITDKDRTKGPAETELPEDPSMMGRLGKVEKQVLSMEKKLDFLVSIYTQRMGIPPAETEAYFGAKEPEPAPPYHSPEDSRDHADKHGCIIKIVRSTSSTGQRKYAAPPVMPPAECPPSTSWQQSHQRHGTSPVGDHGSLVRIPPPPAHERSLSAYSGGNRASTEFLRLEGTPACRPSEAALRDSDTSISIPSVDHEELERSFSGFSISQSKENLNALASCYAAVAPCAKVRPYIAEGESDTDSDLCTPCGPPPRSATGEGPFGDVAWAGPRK
T6 sequence (Q932Y6 whole entry): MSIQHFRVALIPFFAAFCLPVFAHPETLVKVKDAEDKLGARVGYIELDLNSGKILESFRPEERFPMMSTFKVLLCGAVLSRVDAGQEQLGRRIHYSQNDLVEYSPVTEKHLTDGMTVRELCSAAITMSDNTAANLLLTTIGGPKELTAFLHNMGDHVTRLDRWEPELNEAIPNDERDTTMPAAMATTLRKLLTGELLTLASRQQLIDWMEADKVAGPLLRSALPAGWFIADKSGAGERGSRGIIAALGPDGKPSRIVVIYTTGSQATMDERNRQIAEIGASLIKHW
Potassium voltage-gated channel subfamily KQT member 2/member 3, sequence (O88943 whole entry): as the sequence (O88943 whole entry) above
Potassium voltage-gated channel subfamily KQT member 2/member 3, sequence (O88944 whole entry): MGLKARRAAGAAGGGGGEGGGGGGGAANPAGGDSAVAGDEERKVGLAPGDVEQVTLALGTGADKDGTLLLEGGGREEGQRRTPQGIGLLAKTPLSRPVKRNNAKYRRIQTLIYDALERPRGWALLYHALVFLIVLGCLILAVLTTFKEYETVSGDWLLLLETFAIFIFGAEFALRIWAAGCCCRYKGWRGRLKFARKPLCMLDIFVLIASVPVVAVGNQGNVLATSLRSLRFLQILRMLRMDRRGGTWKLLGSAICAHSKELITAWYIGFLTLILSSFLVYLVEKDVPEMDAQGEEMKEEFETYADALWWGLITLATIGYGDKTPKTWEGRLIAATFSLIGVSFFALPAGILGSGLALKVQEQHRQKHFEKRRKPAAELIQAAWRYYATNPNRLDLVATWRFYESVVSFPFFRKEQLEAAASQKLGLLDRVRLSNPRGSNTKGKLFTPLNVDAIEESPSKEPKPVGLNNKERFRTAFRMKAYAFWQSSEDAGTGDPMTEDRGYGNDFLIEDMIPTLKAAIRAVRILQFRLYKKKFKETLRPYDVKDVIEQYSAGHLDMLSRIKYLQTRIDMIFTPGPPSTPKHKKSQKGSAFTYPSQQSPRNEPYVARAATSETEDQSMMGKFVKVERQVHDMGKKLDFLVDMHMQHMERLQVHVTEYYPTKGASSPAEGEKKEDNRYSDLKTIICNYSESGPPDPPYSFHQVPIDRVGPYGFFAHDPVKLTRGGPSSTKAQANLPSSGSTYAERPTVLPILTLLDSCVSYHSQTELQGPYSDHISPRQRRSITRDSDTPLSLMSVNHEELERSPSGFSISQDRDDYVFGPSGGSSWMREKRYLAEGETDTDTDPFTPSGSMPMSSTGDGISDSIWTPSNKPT
72 kDa type IV collagenase, sequence (P08253 whole entry): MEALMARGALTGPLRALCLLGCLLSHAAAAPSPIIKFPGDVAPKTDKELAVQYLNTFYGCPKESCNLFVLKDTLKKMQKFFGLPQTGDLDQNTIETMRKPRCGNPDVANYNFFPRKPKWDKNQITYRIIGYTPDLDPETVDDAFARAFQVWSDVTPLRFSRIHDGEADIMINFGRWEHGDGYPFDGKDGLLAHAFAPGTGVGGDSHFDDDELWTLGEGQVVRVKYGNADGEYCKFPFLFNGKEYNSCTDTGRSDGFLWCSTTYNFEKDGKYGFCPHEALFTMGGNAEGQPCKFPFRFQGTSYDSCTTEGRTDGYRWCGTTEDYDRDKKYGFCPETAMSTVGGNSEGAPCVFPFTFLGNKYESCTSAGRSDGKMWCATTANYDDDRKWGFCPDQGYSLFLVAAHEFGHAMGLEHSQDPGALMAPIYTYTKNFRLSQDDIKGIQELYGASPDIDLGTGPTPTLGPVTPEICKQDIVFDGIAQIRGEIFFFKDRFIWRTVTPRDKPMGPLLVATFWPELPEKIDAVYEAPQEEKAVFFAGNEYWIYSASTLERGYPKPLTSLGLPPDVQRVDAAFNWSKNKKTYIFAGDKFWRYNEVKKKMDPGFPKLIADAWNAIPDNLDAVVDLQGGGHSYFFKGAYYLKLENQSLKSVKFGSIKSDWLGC
Sphingosine 1-phosphate receptor 2, sequence (O95136 whole entry): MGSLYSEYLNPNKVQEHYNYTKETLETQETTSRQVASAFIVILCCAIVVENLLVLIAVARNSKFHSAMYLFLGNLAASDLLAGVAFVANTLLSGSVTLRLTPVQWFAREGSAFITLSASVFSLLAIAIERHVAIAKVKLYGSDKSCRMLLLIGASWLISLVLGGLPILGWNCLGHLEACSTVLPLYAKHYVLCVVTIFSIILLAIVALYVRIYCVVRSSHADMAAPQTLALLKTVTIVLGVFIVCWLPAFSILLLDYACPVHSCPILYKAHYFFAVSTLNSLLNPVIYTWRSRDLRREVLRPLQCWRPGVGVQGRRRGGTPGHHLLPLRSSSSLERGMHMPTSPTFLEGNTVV
Beta-lactamase (Pseudomonas aeruginosa, UniProt Q79MP6), sequence (Q79MP6 whole entry): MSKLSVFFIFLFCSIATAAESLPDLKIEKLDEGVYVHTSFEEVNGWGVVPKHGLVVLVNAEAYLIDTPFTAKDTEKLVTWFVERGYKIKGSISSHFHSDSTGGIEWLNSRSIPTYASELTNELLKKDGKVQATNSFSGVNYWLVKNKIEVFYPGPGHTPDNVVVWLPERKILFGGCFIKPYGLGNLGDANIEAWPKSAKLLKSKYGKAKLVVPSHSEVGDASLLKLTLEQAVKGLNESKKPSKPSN
Latent membrane protein 1, sequence (P03230 whole entry, the tested form may be a part): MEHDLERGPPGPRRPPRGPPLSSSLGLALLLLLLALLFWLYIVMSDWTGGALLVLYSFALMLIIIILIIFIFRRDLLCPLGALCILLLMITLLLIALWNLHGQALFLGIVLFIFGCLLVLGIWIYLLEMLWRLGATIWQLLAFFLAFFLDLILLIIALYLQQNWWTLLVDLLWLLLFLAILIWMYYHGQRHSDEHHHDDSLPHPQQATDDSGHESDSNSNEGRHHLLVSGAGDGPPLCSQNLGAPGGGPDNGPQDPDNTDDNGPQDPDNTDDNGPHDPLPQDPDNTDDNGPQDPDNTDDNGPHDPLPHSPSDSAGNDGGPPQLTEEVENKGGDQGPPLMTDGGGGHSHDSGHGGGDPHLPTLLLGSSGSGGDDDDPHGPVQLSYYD
Beta-lactamase (Salmonella choleraesuis (strain SC-B67), UniProt Q5J463), sequence (Q5J463 whole entry): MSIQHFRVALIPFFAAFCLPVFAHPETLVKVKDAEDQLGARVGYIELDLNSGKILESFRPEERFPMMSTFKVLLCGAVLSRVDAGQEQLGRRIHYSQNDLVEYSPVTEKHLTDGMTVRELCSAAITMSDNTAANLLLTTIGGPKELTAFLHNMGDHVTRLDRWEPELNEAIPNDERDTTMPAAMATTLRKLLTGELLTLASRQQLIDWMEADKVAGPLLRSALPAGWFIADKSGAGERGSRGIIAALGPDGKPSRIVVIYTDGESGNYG

Cc1[nH]c2ccccc2c1/C=N/NC(=O)Cc1nnc(N)s1
IC50 (Caspase-3 [1]): > 99 µM (inactive)
IC50 [2]: > 99 µM (inactive)
IC50 [3]: > 99 µM (inactive)
IC50 [4]: > 99 µM (inactive)

O=C(c1cc(-c2ccccc2)on1)N(C1CCCCC1)C1CCCCC1
EC50 [5]: > 50 µM (inactive)
EC50 [6]: > 50 µM (inactive)

Cc1cc(C)c(NC(=O)C2CC3CCC2C3)c(C)c1 (stereo unspecified)
EC50 [7]: 410 nM (active) and 369 nM (active) and 230 nM (active)
EC50 [8]: 31.9 µM (active)
EC50 [9]: 0.366 µM (active)

O=C(O)c1ccccc1-c1ccc(/C=C/c2cc(C(F)(F)F)nc(O)n2)o1
IC50 (Beta-lactamase [10]): 30.2 µM (inactive)
IC50 (Beta Lactamase [11]): 25 µM (inactive)
IC50 (Beta-lactamase [12]): 6.74 µM (active)
IC50 (Beta Lactamase [13]): 7 µM (active)
IC50 (CHO): > 49.8 µM (inactive)

CCc1sc(C(=O)Nc2ncccc2O)cc1C
AC50 [14]: 29.7 µM (active)
EC50 [15]: > 67.5 µM (inactive)
AC50 (HEK293): 3.71 µM (active)

O=C(CSc1nc2c(c(=O)[nH]1)CN(Cc1ccccc1)CC2)NC1CCCCC1
CC50 [16]: > 100 µM (inconclusive)
CC50 [17]: > 100 µM (inconclusive)

O=C(Nc1nc2ccc(Cl)cc2s1)c1ccsc1
IC50 [18]: 1.1 µM (active)
IC50 [19]: 0.83 µM (active)
IC50 [20]: 0.83 µM (active)
IC50 (Caspase-3 [21]): 2.3 µM (active)

O=C(N/N=C/c1ccncc1)c1cccc(NC(=O)c2ccc(Cl)cc2)c1
IC50 (Prothrombin): > 100 µM (inactive)
IC50 [22]: > 100 µM (inactive)
IC50 [23]: 30.4 µM (active)
